Among the data in patent publication US8173645B2 (Takeda San Diego, Inc., priority 2007, dated 2012) are EC50 and Emax values, retold here.

Structures are written as SMILES.

In this experiment the target is T1, glucokinase (GK), residues 12-465 of the human enzyme (Homo sapiens, UniProt P35557).
T1 construct: I.D. No. 1 corresponds to residues 12-465 of glucokinase; made in house; host or cells: E. coli DH10b-Tlr
T1 sequence (P35557 with tags, fused parts or gaps isoform P35557-2): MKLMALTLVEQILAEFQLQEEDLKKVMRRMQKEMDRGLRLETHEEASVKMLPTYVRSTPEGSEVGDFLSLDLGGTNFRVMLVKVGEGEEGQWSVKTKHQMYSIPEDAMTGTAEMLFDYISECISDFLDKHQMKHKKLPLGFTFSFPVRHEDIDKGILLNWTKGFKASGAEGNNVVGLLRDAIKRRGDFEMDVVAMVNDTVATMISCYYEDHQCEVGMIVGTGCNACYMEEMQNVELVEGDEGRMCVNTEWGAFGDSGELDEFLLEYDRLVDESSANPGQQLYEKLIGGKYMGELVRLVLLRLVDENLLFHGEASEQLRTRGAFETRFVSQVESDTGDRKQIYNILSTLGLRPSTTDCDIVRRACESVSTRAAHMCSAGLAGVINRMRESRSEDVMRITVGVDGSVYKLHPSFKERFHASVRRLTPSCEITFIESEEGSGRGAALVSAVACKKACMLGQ
Put plainly: Enzymatic glucokinase activity assay (KinaseGlo luminescence, ATP consumption). It is filed as biochemical. The following applies: 5 μM ATP, 5 mM Glucose; for EC50: GK activation, Kact = concentration giving 50% of the maximal increase in GK activity, read-out: pKact; for Emax: calculated maximal gain in GK enzyme activity at a saturating concentration of the compound, read-out: % ACTmax. The procedure, abridged: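 Activation measured as ATP consumption: residual ATP detected by KinaseGlo luminescence after 60 min at room temperature with 5 μM ATP and 5 mM glucose (Hepes pH 7.2, MgCl2, Brij35, DTT, 2% DMSO). Enzyme was recombinant FLAG-tagged protein from E. coli. Eleven-point twofold series were fitted nonlinearly for pKact and % ACTmax.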

On to `O=C(Nc1nccs1)[C@H](CC1CCCCC1)N1CCN(S(=O)(=O)c2ccc3c(c2)CCO3)CC1=O` [Example 102, (S)-3-cyclohexyl-2-(4-(2,3-dihydrobenzofuran-5-ylsulfonyl)-2-oxopiperazin-1-yl)-N-(thiazol-2-yl)propanamide], for which the EC50 fell in the range of 0.794 to 1.26 µM and the Emax was 74.1 to 97%.
As for `O=C(Nc1nccs1)[C@H](CC1CCCCC1)N1CCN(S(=O)(=O)c2ccc(F)c(F)c2)CC1=O` [Example 103, (S)-3-cyclohexyl-2-(4-(3,4-difluorophenylsulfonyl)-2-oxopiperazin-1-yl)-N-(thiazol-2-yl)propanamide], the EC50 was not above 0.631 µM and the Emax is 108 to 119%.
Consider `O=C(Nc1nccs1)[C@H](CC1CCCCC1)N1CCN(S(=O)(=O)c2cc3ccccc3s2)CC1=O` [Example 104, (S)-2-(4-(benzo[b]thiophen-2-ylsulfonyl)-2-oxopiperazin-1-yl)-3-cyclohexyl-N-(thiazol-2-yl)propanamide], for which the EC50 is not above 0.631 µM and the Emax was 74.1 to 97%.
On to `O=C(Nc1nccs1)[C@H](CC1CCCCC1)N1CCN(S(=O)(=O)c2cc(F)cc(F)c2)CC1=O` [Example 105, (S)-3-cyclohexyl-2-(4-(3,5-difluorophenylsulfonyl)-2-oxopiperazin-1-yl)-N-(thiazol-2-yl)propanamide], for which the EC50 was not above 0.631 µM and the Emax was 97.1 to 107%.
For `O=C(Nc1nccs1)[C@H](CC1CCCCC1)N1CCN(S(=O)(=O)c2cccc(OC(F)F)c2)CC1=O` [Example 106, (S)-3-cyclohexyl-2-(4-(3-(difluoromethoxy)phenylsulfonyl)-2-oxopiperazin-1-yl)-N-(thiazol-2-yl)propanamide], the EC50 lay in the range of 0.794 to 1.26 µM and the Emax was 108 to 119%.
As to `Cc1ccc2sc(S(=O)(=O)N3CCN([C@@H](CC4CCCCC4)C(=O)Nc4nccs4)C(=O)C3)cc2c1` [Example 107, (S)-3-cyclohexyl-2-(4-(5-methylbenzo[b]thiophen-2-ylsulfonyl)-2-oxopiperazin-1-yl)-N-(thiazol-2-yl)propanamide], the EC50 was in the range of 0.794 to 1.26 µM and the Emax is not above 74%.
As to `O=C(Nc1nccs1)[C@H](CC1CCCCC1)N1CCN(S(=O)(=O)c2ccco2)CC1=O` [Example 108, (S)-3-cyclohexyl-2-(4-(furan-2-ylsulfonyl)-2-oxopiperazin-1-yl)-N-(thiazol-2-yl)propanamide], the EC50 was not above 0.631 µM and the Emax is 74.1 to 97%.
For `CCn1cc(S(=O)(=O)N2CCN([C@@H](CC3CCCCC3)C(=O)Nc3nccs3)C(=O)C2)cn1` [Example 110, (S)-3-cyclohexyl-2-(4-(1-ethyl-1H-pyrazol-4-ylsulfonyl)-2-oxopiperazin-1-yl)-N-(thiazol-2-yl)propanamide], the EC50 is not below 3.16 µM and the Emax is not below 119%.
`Cc1n[nH]c(C)c1S(=O)(=O)N1CCN([C@@H](CC2CCCCC2)C(=O)Nc2nccs2)C(=O)C1` [Example 111, (S)-3-cyclohexyl-2-(4-(3,5-dimethyl-1H-pyrazol-4-ylsulfonyl)-2-oxopiperazin-1-yl)-N-(thiazol-2-yl)propanamide]: the EC50 is not below 3.16 µM and the Emax is not below 119%.
Take `Cn1ccc(S(=O)(=O)N2CCN([C@@H](CC3CCCCC3)C(=O)Nc3nccs3)C(=O)C2)n1` [Example 112, (S)-3-cyclohexyl-2-(4-(1-methyl-1H-pyrazol-3-ylsulfonyl)-2-oxopiperazin-1-yl)-N-(thiazol-2-yl)propanamide]: the EC50 is not above 0.631 µM and the Emax is 108 to 119%.
On to `O=C(Nc1nccs1)[C@H](CC1CCCCC1)N1CCN(S(=O)(=O)C2CCCC2)CC1=O` [Example 113, (S)-3-cyclohexyl-2-(4-(cyclopentylsulfonyl)-2-oxopiperazin-1-yl-N-thiazol-2-yl)propanamide], for which the EC50 was not above 0.631 µM and the Emax was not below 119%.
On to `O=C(Nc1nccs1)[C@H](CC1CCCCC1)N1CCN(C(=S)NC2CCCCC2)CC1=O` [Example 114, (S)-3-cyclohexyl-2-(4-(cyclohexylcarbamothioyl)-2-oxopiperazin-1-yl)-N-(thiazol-2-yl)propanamide], for which the EC50 fell in the range of 1.58 to 2.51 µM and the Emax is 97.1 to 107%.
On the same counts, the results for `O=C(Nc1nccs1)[C@H](CC1CCCCC1)N1CCN(C(=S)NCc2ccco2)CC1=O` [Example 115, (S)-3-cyclohexyl-2-(4-(furan-2-ylmethylcarbamothioyl)-2-oxopiperazin-1-yl)-N-(thiazol-2-yl)propanamide] are 0.794 to 1.26 µM and 97.1 to 107%.
Take `N#Cc1cccc(NC(=S)N2CCN([C@@H](CC3CCCCC3)C(=O)Nc3nccs3)C(=O)C2)c1` [Example 116, (S)-2-(4-(3-cyanophenylcarbamothioyl)-2-oxopiperazin-1-yl)-3-cyclohexyl-N-(thiazol-2-yl)propanamide]: the EC50 is not below 3.16 µM and the Emax was not below 119%.
On the same counts, the results for `O=C(Nc1nccs1)[C@H](CC1CCCCC1)N1CCN(C(=S)NCCN2CCOCC2)CC1=O` [Example 117, (S)-3-cyclohexyl-2-(4-(2-morpholinoethylcarbamothioyl)-2-oxopiperazin-1-yl)-N-(thiazol-2-yl)propanamide] are 1.58 to 2.51 µM and 97.1 to 107%.
On the same counts, the results for `O=C(Nc1nccs1)[C@H](CC1CCCCC1)N1CCN(C(=S)NCCCN2CCOCC2)CC1=O` [Example 118, (S)-3-cyclohexyl-2-(4-(3-morpholinopropylcarbamothioyl)-2-oxopiperazin-1-yl)-N-(thiazol-2-yl)propanamide] are 1.58 to 2.51 µM and 97.1 to 107%.
Taken in the same sequence, the figures for `O=C(Nc1nccs1)[C@H](CC1CCCCC1)N1CCN(C(=S)NCc2cccc(F)c2)CC1=O` [Example 119, (S)-3-cyclohexyl-2-(4-(3-fluorobenzylcarbamothioyl)-2-oxopiperazin-1-yl)-N-(thiazol-2-yl)propanamide] were 0.794 to 1.26 µM and 97.1 to 107%.
On to `O=C(Nc1nccs1)[C@H](CC1CCCCC1)N1CCN(C(=S)NCc2ccc(F)cc2)CC1=O` [Example 120, (S)-3-cyclohexyl-2-(4-(4-fluorobenzylcarbamothioyl)-2-oxopiperazin-1-yl)-N-(thiazol-2-yl)propanamide], for which the EC50 is 0.794 to 1.26 µM and the Emax was 108 to 119%.
For `O=C(Nc1nccs1)[C@H](CC1CCCCC1)N1CCN(C(=S)NCCN2CCCCC2)CC1=O` [Example 121, (S)-3-cyclohexyl-2-(2-oxo-4-(2-(piperidin-1-yl)ethylcarbamothioyl)piperazin-1-yl)-N-(thiazol-2-yl)propanamide], the EC50 is not above 0.631 µM and the Emax was 97.1 to 107%.
For the compound `COc1ccc(CNC(=S)N2CCN([C@@H](CC3CCCCC3)C(=O)Nc3nccs3)C(=O)C2)cc1` [Example 122, (S)-3-cyclohexyl-2-(4-(4-methoxybenzylcarbamothioyl)-2-oxopiperazin-1-yl)-N-(thiazol-2-yl)propanamide], the EC50 was 1.58 to 2.51 µM and the Emax was 74.1 to 97%.
With `O=C(Nc1nccs1)[C@H](CC1CCCCC1)N1CCN(C(=S)NCc2cccs2)CC1=O` [Example 123, (S)-3-cyclohexyl-2-(2-oxo-4-(thiophen-2-ylmethylcarbamothioyl)piperazin-1-yl)-N-(thiazol-2-yl)propanamide], the EC50 lay in the range of 1.58 to 2.51 µM and the Emax is 108 to 119%.
With `O=C(Nc1nccs1)[C@H](CC1CCCCC1)N1CCN(C(=S)Nc2ccc(Cl)cc2)CC1=O` [Example 125, (S)-2-(4-(4-chlorophenylcarbamothioyl)-2-oxopiperazin-1-yl)-3-cyclohexyl-N-(thiazol-2-yl)propanamide], the EC50 was not below 3.16 µM and the Emax is 97.1 to 107%.
Taken in the same sequence, the figures for `N#Cc1ccc(NC(=S)N2CCN([C@@H](CC3CCCCC3)C(=O)Nc3nccs3)C(=O)C2)cc1` [Example 126, (S)-2-(4-(4-cyanophenylcarbamothioyl)-2-oxopiperazin-1-yl)-3-cyclohexyl-N-(thiazol-2-yl)propanamide] were 0.794 to 1.26 µM and 97.1 to 107%.
With `O=C(Nc1nccs1)[C@H](CC1CCCCC1)N1CCN(C(=S)Nc2ccc(Oc3ccccc3)cc2)CC1=O` [Example 127, (S)-3-cyclohexyl-2-(2-oxo-4-(4-phenoxyphenylcarbamothioyl)piperazin-1-yl)-N-(thiazol-2-yl)propanamide], the EC50 lay within 1.58 to 2.51 µM and the Emax was not above 74%.
Taken in the same sequence, the figures for `O=C(Nc1nccs1)[C@H](CC1CCCCC1)N1CCN(C(=S)NC2CCCC2)CC1=O` [Example 128, (S)-3-cyclohexyl-2-(4-(cyclopentylcarbamothioyl)-2-oxopiperazin-1-yl)-N-(thiazol-2-yl)propanamide] were 0.794 to 1.26 µM and 97.1 to 107%.
As to `O=C(Nc1nccs1)[C@H](CC1CCCCC1)N1CCN(C(=S)NC2CC2)CC1=O` [Example 129, (S)-3-cyclohexyl-2-(4-(cyclopropylcarbamothioyl)-2-oxopiperazin-1-yl)-N-(thiazol-2-yl)propanamide], the EC50 fell in the range of 1.58 to 2.51 µM and the Emax was 97.1 to 107%.
